According to PubChem BioAssay AID588428 (NMMLSC, 2011):
Activity calls are given as the source filed them.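 The calls were made as follows: active = compounds whose thermal stabilization response is above zero, meaning they raise the protein's melting point; inactive = the rest.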

What follows are molecules tested against Beta-adrenergic receptor kinase 1 (Homo sapiens) (UniProt P25098) (assay: ligand-induced GRK2 thermal stabilization – biophysical, Thermofluor, set 1, orthogonal assay for GRK2 aptamer-displacement inhibitor project (AID 588428)). Details: purified GRK2 thermal shift, ANS fluorescence; at 200 µM; active compounds read high.
Beta-adrenergic receptor kinase 1 (Homo sapiens), sequence (P25098 whole entry, looked up): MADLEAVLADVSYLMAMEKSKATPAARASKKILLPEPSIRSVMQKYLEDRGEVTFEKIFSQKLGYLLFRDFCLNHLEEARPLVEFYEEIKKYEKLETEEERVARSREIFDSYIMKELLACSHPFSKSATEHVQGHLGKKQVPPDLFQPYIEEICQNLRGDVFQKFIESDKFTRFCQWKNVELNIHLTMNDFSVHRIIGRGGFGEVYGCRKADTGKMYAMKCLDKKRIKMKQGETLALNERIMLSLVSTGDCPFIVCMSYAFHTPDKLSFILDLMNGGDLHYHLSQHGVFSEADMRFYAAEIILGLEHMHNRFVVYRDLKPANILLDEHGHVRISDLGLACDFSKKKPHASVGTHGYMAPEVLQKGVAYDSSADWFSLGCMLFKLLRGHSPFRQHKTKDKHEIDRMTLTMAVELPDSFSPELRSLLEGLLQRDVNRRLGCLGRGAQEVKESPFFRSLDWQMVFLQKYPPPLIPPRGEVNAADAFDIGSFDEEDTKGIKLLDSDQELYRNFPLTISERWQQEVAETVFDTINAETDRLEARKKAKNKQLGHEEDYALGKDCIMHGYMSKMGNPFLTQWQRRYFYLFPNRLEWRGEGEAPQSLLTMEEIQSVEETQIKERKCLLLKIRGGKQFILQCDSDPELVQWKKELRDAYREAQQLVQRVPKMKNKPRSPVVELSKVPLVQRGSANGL

thermal stabilization response	Compound
-79.1% (inactive)	Cc1cc(=O)[nH]c(SCC(=O)NCc2ccco2)n1
-114% (inactive)	COc1ccc(CNC(=O)CCS(=O)(=O)c2ccc(Br)cc2)cc1
-53% (inactive)	O=C(CCS(=O)(=O)c1ccc(Br)cc1)NCCc1ccc(Cl)cc1
108%	Cc1ccccc1NC(=O)CCS(=O)(=O)c1ccc(Br)cc1
-176% (inactive)	Cc1cc2ccccc2n1CCNC(=O)c1cccs1
-35.6% (inactive)	CCc1ccccc1NC(=O)CCS(=O)(=O)c1ccc(Br)cc1

More lines, now with the values behind:

Compound	thermal stabilization response
CCOc1ccc(CCNC(=O)CCS(=O)(=O)c2ccc(Br)cc2)cc1OCC	-112% (inactive)
Cc1cccc(N2CCN(C(=O)CCS(=O)(=O)c3ccc(Br)cc3)CC2C)c1 (stereo not given)	-5.78% (inactive)
O=C(CCS(=O)(=O)c1ccc(Br)cc1)Nc1cc(F)ccc1F	-75% (inactive)
O=C(O)C1CC(=O)N(c2ccc3c(c2)OCCO3)C1 (stereo not given)	-152% (inactive)
